Measurements taken from patent US11331375B2, “Compositions and methods for regulating leukocyte adhesion” (University of Virginia Patent Foundation, priority 2015, dated 2022).

Tests used:
[1] = system: THP-1 monocyte adhesion to HUVEC; experiment: Static adhesion assay, THP-1 monocytes on HUVEC; assay type: cell-based, human; settings: HUVEC treated with inhibitor prior to TNFα stimulation
Procedure: HUVECs were seeded on gelatin-coated glass coverslips in 6-well plates and grown to confluence. On the day of the experiment, cells were washed 2× with 1× PBS and incubated for 30 minutes in basal EGM supplemented with 1% BSA in the presence or absence of pharmacological inhibitors. During this incubation period, human THP-1 monocytes were loaded with Calcein-AM (Invitrogen; 5 μg/mL) for 30 minutes at 37° C. Cells were then pelleted by brief centrifugation and excess calcein was removed by washing THP-1 cells 3 times in 1× PBS. Next, HUVECs were stimulated with TNFα (10 ng/mL) for 30 minutes. Following EC activation, calcein-loaded THP-1 monocytes were added to EC monolayers and incubated for 20 minutes at 37° C. to allow THP-1 to contact ECs. Monolayers were then washed 3× with 1× PBS and fixed in ice cold 4% PFA. Following fixation, coverslips were removed from the 6-well plates and mounted on glass microscope slides with Prolong Gold anti-fade mountant with DAPI (Life Technologies). Fluorescent micrographs were obtained at 10×magnification and the number of adherent THP-1 monocytes/ECs was quantified in 5 randomized regions/slide. Data are expressed as mean±SEM (n=3 independent experiments).

HSaVEC = experiment: In vitro ATP release assay (luciferin:luciferase), HSaVEC; assay type: cell-based, human; settings: for inhibition of TNFα-mediated ATP release: CBX, ^10panx1; for effect of inhibitor on TNFα-induced ATP release: antagonist 30 min, WP9QY 10 μM, BFA 5 μg/mL, RuR 20 μM, PP2/PP3 10 μM
Procedure: (§1) In vitro Human arterial and venous ECs were seeded in 24-well plates pre-coated with 0.2% gelatin and grown to confluency. On the day of experiment, the media was removed from each well and cells were carefully washed twice with warm serum free basal EC medium supplemented with 1% BSA. Cells were then incubated in 300 μL of fresh basal EC medium supplemented with 1% BSA for 30 minutes at 37° C. to allow degradation of extracellular ATP released due to mechanical stimulation during washes. Endogenous ecto-nucleotidases were inhibited by incubating EC monolayers with 300 μM ARL 67156 (Tocris) for 30 minutes at 37° C. Cells were then stimulated with recombinant human TNFα (R&D Systems). For dose response experiments, ECs were incubated with 0.1, 1, 5, 10, 50, or 100 ng/mL recombinant TNFα for 30 minutes at 37° C. For time-course experiments, ECs were stimulated with 10 ng/mL recombinant TNFα for different time points up to 1 hour. In experiments where pharmacological inhibitors were employed, ECs were incubated with antagonists in parallel with ARL 67156 for 30 minutes. To inhibit TNFR1, ECs were incubated with the peptide antagonist of the receptor WP9QY (10 μM; Anaspec). […] Cx hemichannels were inhibited with lanthanum (La^3+; 100 μM; Sigma) and Panx1 channels were blocked with carbenoxolone (CBX; 50 μM; Sigma) and the inhibitory peptide ^10panx1 (200 μM; Genscript). […] The role of caspase activation was assessed by inhibition with the pan-caspase blocker Q-VD-OPh (100 μM; Sigma). Following stimulation with TNFα or vehicle, 150 μL of the cell supernatant was collected and immediately placed into pre-chilled 1.5 mL Eppendorf tubes on ice. All samples were centrifuged at 10,000×g for 5 minutes and 50 μL of each sample was transferred to a white, opaque 96-well plate. Using a FluoStar Omega luminometer, 50 μL of luciferin:luciferase reagent (ATP bioluminescence assay kit HSII; Roche) was injected into each well and luminescence was recorded following a 5s orbital mix. ATP concentration in each sample was calculated from a standard curve for all experiments. Data are presented as a % change in ATP release from baseline (i.e. unstimulated cells) and expressed as mean±SEM (n=5 independent experiments with triplicate measurements).

HUVEC = experiment: In vitro ATP release assay (luciferin:luciferase), HUVEC; assay type: cell-based, human; settings: for reduction of TNFα-mediated ATP release: CBX 50 μM, ^10panx1 200 μM; for effect of inhibitor on TNFα-induced ATP release: antagonist 30 min, WP9QY 10 μM, La3+ 100 μM, BFA 5 μg/mL, RuR 20 μM, PP2/PP3 10 μM, Q-VD-OPh 100 μM
Procedure: as §1

Panx1 = experiment: Western blot of Panx1 phosphorylation at Y198 in venous ECs; assay type: cell-based, human
Procedure: (§2) Following stimulation with TNFα (in vitro: 10 ng/mL; ex vivo: 50 ng/mL), confluent endothelial cell monolayers or isolated mesenteric venules were homogenized in ice cold Triton extraction buffer (50 mM Tris-HCL, 150 mM NaCl , 5 mM EDTA, 1% deoxycholate, 1% NP-40 and 1% Triton-X100 in phosphate buffered saline and pH adjusted to 7.4) containing protease and phosphatase inhibitors. Cell/Tissue lysates were incubated with rotation at 4° C. for 20 minutes to solubilize proteins, followed by centrifugation for 5 minutes at 13,000× g to pellet cell debris. Protein concentration was quantified using the BCA method. 15-20 μg of total protein was subjected to SDS gel electrophoresis using 4-12% Bis-Tris gels (Invitrogen) and transferred to nitrocellulose membranes for immunoblotting. Membranes were blocked for 1 hr at room temperature with LiCOR blocking solution, then incubated overnight at 4° C. with primary antibodies against pY416SFKs, (BD Biosciences; 1:1000) pY198Panx1 (Alpha Diagnostic Intl (ADI); 1:1000) and GAPDH (Sigma; 1:10,000) or an antibody against the intracellular loop of Panx1 (Panx1-IL) (ADI; 1:1000) (normalization controls). Membranes were then washed and incubated with LiCOR secondary antibodies (1:10,000) and visualized and quantitated using LiCOR Odyssey. To inhibit SFK activity, EC monolayers were incubated with the SFK inhibitor PP2 (Tocris; 10 μM). […] To show specificity for the phosphorylated form of SFKs and Panx1, cell lysates were incubated with alkaline phosphatase for 1 hour at 37° C. Western blot images have been cropped for presentation. Uncropped Western blots can be found in FIGS. 12-13. Data are expressed as mean±SEM (n=3 independent experiments).

[2] = system: isolated murine mesenteric venules; experiment: Ex vivo vascular perfusion ATP release assay, mesenteric venules; assay type: cell-based, mouse; settings: WP9QY 10 μM, PP2 10 μM
Procedure: For isolated blood vessel experiments, 2nd order venules or arterioles were dissected from the mouse mesentery circulation and cannulated on glass micropipettes to access the vessel lumen. […] Vessels were then perfused with MOPS PSS containing 300 μM ARL 67156 +/− pharmacological inhibitors and incubated for an additional 20 minutes prior to perfusion with MOPS PSS containing recombinant murine TNFα (R&D Systems). Aliquots of the lumenal perfusate were collected every 5 minutes for a 25-minute period and the ATP concentration was quantified by bioluminescence as described above. Data are expressed as mean±SEM (n=4 independent experiments).

Src Family Kinases (SFK) = experiment: Western blot of SFK activation (pY416SFK) in venous ECs; assay type: cell-based, human; settings: HUVEC and HSaVEC; PP2/PP3 10 μM
Procedure: as §2

C57B1/6J mice = experiment: Intravital microscopy of cremaster muscle for leukocyte adhesion and emigration; assay type: in vivo, mouse; settings: control C57B1/6J mice, tamoxifen 10 consecutive days
Procedure: Mice were prepared for intravital microscopy of the cremaster muscle as described previously^25. Briefly, mice were anesthetized with ketamine hydrochloride (150 mg/kg, IP) and xylazine (7.5 mg/kg, IP). The cremaster was isolated, laid over a viewing pedestal, superfused with bicarbonate-buffered saline. After 30 min equilibration, a venule with a wall shear rate (WSR) of ≥500/s, diameter between 20 μm and 40 μm, and the least number of adherent and emigrated leukocytes was chosen for further study. A 1 min baseline recording was made, after which superfusion was stopped, and 50 μl TNFα (1.7 ng/ml in 0.1% BSA) or vehicle control was added under a saran wrap cover every 30 min. 1 min recordings were made just prior to each addition, for 3 hrs. The TNFα was initially reconstituted in PBS at 3.4 ng/ml and 150 μl aliquots were frozen. An aliquot was mixed 1:1 with BBS containing 0.2% BSA at the time of the experiment. Leukocyte adhesion and emigration were determined by off-line analysis. Leukocytes were considered adherent if they stopped for at least 30 s (expressed as #/mm^2 vessel wall), and emigrated leukocytes were leukocytes identified in the interstitium (expressed as #cells/mm^2 tissue). Data are expressed as mean±SEM (n=6-7 independent animals/group).

pannexin1 channel = pannexin1 channel (Homo sapiens, UniProt Q96RD7); settings: cited from earlier work
Chain of pannexin1 channel (Q96RD7 whole entry): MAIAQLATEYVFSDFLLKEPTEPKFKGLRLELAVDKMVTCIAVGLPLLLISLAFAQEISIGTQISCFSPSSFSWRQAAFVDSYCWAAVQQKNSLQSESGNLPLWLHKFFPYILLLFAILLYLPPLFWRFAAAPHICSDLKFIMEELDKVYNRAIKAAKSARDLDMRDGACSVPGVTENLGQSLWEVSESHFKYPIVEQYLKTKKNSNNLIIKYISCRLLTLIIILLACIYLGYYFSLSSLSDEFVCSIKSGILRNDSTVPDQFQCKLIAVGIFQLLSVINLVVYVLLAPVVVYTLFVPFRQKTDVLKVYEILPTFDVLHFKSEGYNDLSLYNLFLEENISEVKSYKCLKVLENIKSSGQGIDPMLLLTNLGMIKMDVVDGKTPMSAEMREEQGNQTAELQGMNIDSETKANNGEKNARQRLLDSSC

Panx1 channels in HUVEC = target: T1, Panx1 channels in HUVEC (Homo sapiens, UniProt Q96RD7); experiment: YO-PRO-1 dye uptake assay; assay type: cell-based; settings: ^10panx1 200 μM, TNFα 10 ng/mL 30 minutes
T1 construct: Primary human umbilical vein endothelial cells (HUVEC) were purchased from Cell Applications; PromoCell 200K-05; C-12231; host or cells: HUVEC, HSaVEC (primary human venous endothelial cells)
T1 sequence (Q96RD7 whole entry): as above
Procedure: HUVECs were cultured on poly-L-lysine coated coverslips and grown to confluence in EGM. Cells were washed three times with 1× PBS and incubated in fresh EGM for 30 minutes prior to stimulation. To stimulate YO-PRO-1 dye uptake, YO-PRO-1 (1 μM) was added to the media and EC monolayers were treated with TNFα at a range of concentrations (0.1 ng/mL-100 ng/mL) for 30 minutes. At the end of the stimulation, cells were washed 3× with 1× PBS and immediately fixed in 4% PFA. Coverslips were then mounted on microscope slides with DAPI ProlongGold mounting agent and visualized on an Olympus IX81 laser scanning confocal microscope. Dye uptake was quantified as the intensity of YO-PRO-1 fluorescence over time using ImageJ software. For time course analysis, YO-PRO-1 was added to the culture media at various time points after TNFα stimulation and incubated to the 30-minute time point. Data are expressed as mean±SEM (n=3 independent experiments).

CC1(C)[C@@H](OC(=O)CCC(=O)O)CC[C@]2(C)[C@H]3C(=O)C=C4[C@@H]5C[C@@](C)(C(=O)O)CC[C@]5(C)CC[C@@]4(C)[C@]3(C)CC[C@@H]12 [CBX, carbenoxolone]
effect on TNFα-induced THP-1 monocyte adhesion [1]: significantly reduced | inhibition of TNFα-mediated ATP release (HSaVEC; HSaVEC): 69.7% | reduction of TNFα-mediated ATP release (HUVEC; HUVEC): 86.4%

CC(C)(C)n1nc(-c2ccc(Cl)cc2)c2c(N)ncnc21 [PP2]
effect on Panx1 Y198 phosphorylation induced by c-Src overexpression (Panx1; HUVEC): blocked | effect on TNFα-induced Panx1 phosphorylation at Y198 (Panx1; HUVEC and HSaVECs, pretreatment with PP2): blocked | effect of inhibitor on TNFα-induced ATP release (HSaVEC; HSaVEC): significantly blunted | effect of inhibitor on TNFα-induced ATP release [2]: blunting ATP release | effect of inhibitor on TNFα-induced ATP release (HUVEC; HUVEC): significantly blunted | effect on TNFα-induced Y416 phosphorylation of SFK (Src Family Kinases (SFK)): reduced Y416 phosphorylation to baseline levels

Nc1ncnc2c1cnn2-c1ccccc1 [PP3]
effect of inhibitor on TNFα-induced ATP release (HSaVEC; HSaVEC): no significant effect | effect of inhibitor on TNFα-induced ATP release (HUVEC; HUVEC): no significant effect | effect on TNFα-induced Y416 phosphorylation of SFK (Src Family Kinases (SFK)): no effect

CC(C)[C@H](NC(=O)c1ccc2ccccc2n1)C(=O)N[C@@H](CC(=O)O)C(=O)COc1c(F)cccc1F [Q-VD-OPh]
effect of inhibitor on TNFα-induced ATP release (HUVEC; HUVEC): lack of inhibition

[La] [lanthanum]
effect of inhibitor on TNFα-induced ATP release (HUVEC; HUVEC): failed to reduce ATP release

N.N.N.N.N.N.N.N.N.N.N.N.N.N.[Cl-].[Cl-].[Cl-].[Cl-].[Cl-].[Cl-].[O-2].[O-2].[Ru+3].[Ru+3].[Ru+4] [ruthenium red]
effect of inhibitor on TNFα-induced ATP release (HSaVEC; HSaVEC): ruled out the involvement | effect of inhibitor on TNFα-induced ATP release (HUVEC; HUVEC): ruled out the involvement

CC/C(=C(\c1ccccc1)c1ccc(OCCN(C)C)cc1)c1ccccc1 [tamoxifen]
effect on TNFα-induced leukocyte adhesion (C57B1/6J mice): no effect | effect on TNFα-induced leukocyte emigration (C57B1/6J mice): no effect

Apyrase
effect on TNFα-induced THP-1 monocyte adhesion [1]: significantly reduced

IL-1β: recombinant human pro-inflammatory cytokine
ATP release on cytokine stimulation (HSaVEC; HSaVEC monolayers): failed to promote ATP release | degree of ATP release on co-administration with TNFα vs TNFα alone (HSaVEC; HSaVEC, TNFα 10 ng/mL plus increasing IL-1β): did not significantly alter | ATP release on cytokine stimulation (HUVEC; HUVEC monolayers): failed to promote ATP release | degree of ATP release on co-administration with TNFα vs TNFα alone (HUVEC; HUVEC, TNFα 10 ng/mL plus increasing IL-1β): did not significantly alter

KYPIVEQYLKYGRKKQRRR (hybrid of human and HIV tat seq.) [IL2/PanX peptide]
effect on TNFα-induced THP-1 monocyte adhesion [1]: ability to block leukocyte adhesion | inhibition of pannexin1 channel (previously shown / known) (pannexin1 channel): potent and specific inhibitor

WRQAAFVDSY [^10panx1]
effect on TNFα-induced THP-1 monocyte adhesion [1]: significantly reduced | inhibition of pannexin1 channel (previously shown / known) (pannexin1 channel): block pannexin-1 gap junctions | inhibition of TNFα-mediated ATP release (HSaVEC; HSaVEC): 75.2% | effect on TNFα-induced YO-PRO-1 dye uptake (Panx1 channels in HUVEC): significantly attenuated | reduction of TNFα-mediated ATP release (HUVEC; HUVEC): 70.9%
